Entries after “also recorded” stand apart in the source; their conditions may differ. Where no end group is shown, it is not given here.

This is an account of results in patent publication US8987213B2, “Peptides that selectively home to heart vasculature and related conjugates and methods” (Sanford-Burnham Medical Research Institute, priority 2004, dated 2015).

One test deals with T1, endothelin A-receptor (Homo sapiens, UniProt P25101).
T1 construct: host or cells: patients
T1 sequence (P25101 21-427): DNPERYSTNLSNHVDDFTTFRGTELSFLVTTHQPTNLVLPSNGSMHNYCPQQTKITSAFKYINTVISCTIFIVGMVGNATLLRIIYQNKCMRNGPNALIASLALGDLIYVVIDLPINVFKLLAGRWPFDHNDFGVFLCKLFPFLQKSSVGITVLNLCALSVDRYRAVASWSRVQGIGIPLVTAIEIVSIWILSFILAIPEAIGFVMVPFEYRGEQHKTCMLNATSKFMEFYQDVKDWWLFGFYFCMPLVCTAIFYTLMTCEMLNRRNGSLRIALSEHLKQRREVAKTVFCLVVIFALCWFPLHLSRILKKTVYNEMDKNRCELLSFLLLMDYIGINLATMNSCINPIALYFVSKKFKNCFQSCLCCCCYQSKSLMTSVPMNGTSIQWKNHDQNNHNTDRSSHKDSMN
Particulars: cited from earlier work.

The test system of a further test is heart vasculature. The experiment in a line: In vivo heart homing of individual phage-displayed peptides after intravenous injection. Set-up: species or system mouse. Particulars: for selective homing to the heart (in words): peptide displayed on T7 phage, intravenous injection into mice. Here is the method:
The indicated peptides identified from a combined screen for heart endothelial homing were reconstituted in T7 phage and individually administered by intravenous injection into mice. […] The highest specificity (over 300-fold) was recorded for the CRPPR (SEQ ID NO: 1)-displaying phage. (A) CRPPR (SEQ ID NO: 1) phage homing to heart, kidney, brain, muscle and lung. (B) CARPAR (SEQ ID NO: 5) phage homing to heart, kidney, brain, muscle and lung. (C) CKRAVR (SEQ ID NO: 7) phage homing to heart, kidney, brain, muscle and lung. (D) CLIDLHVMC (SEQ ID NO: 10) phage homing to heart, kidney, brain, muscle and lung. (E) CRSTRANPC (SEQ ID NO: 11) phage homing to heart, kidney, brain, muscle and lung. (F) CPKTRRVPC (SEQ ID NO: 12) phage homing to heart, kidney, brain, muscle and lung.
In vivo panning was performed as follows. The ex vivo-selected phage pool (5×10^9 p.f.u.) was intravenously injected into mice through the tail vein and allowed to circulate for ten minutes before mice were carefully perfused through the left ventricle with DMEM in order to remove unbound intravascular phage. The heart and control tissues (brain, kidney, skin and muscle) were excised, and phage recovered as described in Hoffman et al., supra, 2004. Phage recovered from the heart were reinjected into mice, and the cycle was repeated for a total of three rounds. Non-recombinant phage were injected into a separate mouse as a control in each experiment.
Individual phage clones were reconstructed as follows. Oligonucleotides that encoded peptides from selected bait plasmids were synthesized, phosphorylated with T4 polynucleotide kinase (PNK; NEB) at 37° C. for one hour, and annealed at a concentration of 0.08 pmol/μl. The annealed inserts were diluted to 0.04 pmol/μl and ligated into T7Select 415-1 arms (Novagen) with T4 ligase overnight at 16° C. The next day, intact recombinant phage were prepared by mixing the ligation reaction with packaging extracts as described by the manufacturer. Inserts were confirmed by sequencing, and individual clones were amplified for ex vivo and in vivo testing as described in Example I above.

Another test concerns heart endothelia. The experiment in a line: Phage localization in tissues by anti-T7 immunostaining, co-injected with fluorescein-conjugated tomato lectin. The test is classed as in vivo, mouse. Particulars: peptide displayed on phage, injected intravenously with tomato lectin. Here is the method:
Further characterization was performed on the five most efficient homing peptides, as indicated by the fold-selectivity summarized in Table 1, and their putative receptors. These homing peptides were analyzed for the ability to selectively bind heart endothelia in vivo and for specific binding to their putative receptors, which also were analyzed for expression in heart endothelia. Each of the phage-displaying a particular homing peptide was individually injected intravenously into mice with fluorescein-conjugated tomato lectin, a blood vessel marker. […] None of the six phage were detected in tissues other than heart under the same conditions.
Immunohistochemistry was performed as follows. Rat monoclonal anti-mouse CD31 (1:100) was obtained from BD Pharmingen (San Jose, Calif.), and rabbit polyclonal anti-T7 phage (1:500), and chicken anti-mouse CRIP2 IgY (1:100) were obtained from GenWay (San Diego, Calif.). Secondary antibodies, AlexaFluor-488 goat anti-rat IgG (1:1000) and AlexaFluor-594 goat anti-rat or rabbit IgG (1:1000) were obtained from Molecular Probes (Eugene, Oreg.); the secondary antibody GAYFC-AlexaFluor 594 goat anti-IgY Fc (1:250) was obtained from GenWay. Frozen sections were preincubated with blocking buffer (5% normal goat serum and 0.5% BSA in 1×PBS) for one hour, washed three times with PBS, and incubated with the primary antibody of interest overnight at 4° C. After the overnight incubation, secondary antibodies were added and incubated for one hour at room temperature. Slides were washed three times with PBS and mounted in Vectashield Mounting Medium with DAPI (Vector Laboratories; Burlingame, Calif.). Blood vessels were additionally visualized by intravenous injection with Lycopersicon esculentum (tomato) lectin conjugated to fluorescein (100 μg in 200 μl of PBS) purchased from Vector Laboratories.

A further test deals with T2, Sigirr/TIR8 (Mus musculus, UniProt Q9JLZ8).
T2 construct: Full-length cDNAs were constructed for four of the putative heart homing receptors; expressed in transfected cells; host or cells: 293T cells, pMH6-derived plasmid
T2 sequence (Q9JLZ8 1-409): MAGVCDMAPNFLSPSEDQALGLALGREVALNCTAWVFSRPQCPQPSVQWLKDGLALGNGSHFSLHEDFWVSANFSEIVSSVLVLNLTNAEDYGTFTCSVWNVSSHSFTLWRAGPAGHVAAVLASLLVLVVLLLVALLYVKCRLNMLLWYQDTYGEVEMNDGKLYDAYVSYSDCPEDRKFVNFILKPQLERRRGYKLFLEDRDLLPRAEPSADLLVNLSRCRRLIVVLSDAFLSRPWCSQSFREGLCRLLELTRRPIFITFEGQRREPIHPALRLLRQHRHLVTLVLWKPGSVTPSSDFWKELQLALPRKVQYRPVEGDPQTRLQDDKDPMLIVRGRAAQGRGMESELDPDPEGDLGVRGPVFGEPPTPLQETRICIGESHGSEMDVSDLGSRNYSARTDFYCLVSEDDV
The experiment in a line: Phage binding to receptor-transfected 293T cells and peptide competition. The following applies: free synthetic peptide 100 μg/ml. Set-up: species or system murine. Here is the method: (§1) Receptor transfections and phage binding assays were performed as follows. 293T cells were transfected with pMH6-derived plasmids (Roche Diagnostics; Indianapolis, Ind.) encoding HLP/CRIP2, Sigirr/TIR8, MpcII-3-related protein and bc10 using the Fugene transfection reagent (Roche Diagnostics). Briefly, 10 μg of plasmid was mixed with 700 μl of serum-free DMEM and 30 μl of Fugene transfection reagent and incubated for 15 minutes at room temperature before the mixture was added to cells. After forty-eight hours, cells were detached from culture dishes using EDTA and washed once with PBS. Phage displaying CRPPR (SEQ ID NO: 1), CKRAVR (SEQ ID NO: 7), CRSTRANPC (SEQ ID NO: 11) or CPKTRRVPC (SEQ ID NO: 12) and nonrecombinant control phage (1×10^9 p.f.u) were incubated with transfected cells for two hours at 4° C. Unbound phage were removed by five washes with 1% BSA in PBS. Bound phage were rescued by addition of bacteria; binding efficiencies were determined by plaque assay as described above.
(§2) Peptides for competition assays were synthesized at The Burnham Institute peptide facility using Fmoc chemistry in a solid-phase synthesizer prior to purification by HPLC and confirmation of their identity by mass spectrometry. Fluorescein-conjugated peptides were synthesized as described in Wender et al., Proc. Natl. Acad. Sci. USA 97:13003-13008 (2000). Competition assays were performed by addition of 100 μg peptide to the cells and phage, followed by incubation at 4° C. for two hours. After five washes with […], bound phage were rescued and quantitated by plaque assay.

For another test, the target named is T3, bc10 (Mus musculus, UniProt P62951).
T3 construct: Full-length cDNAs were constructed for four of the putative heart homing receptors; expressed in transfected cells; host or cells: 293T cells, pMH6-derived plasmid
T3 sequence (P62951 1-87): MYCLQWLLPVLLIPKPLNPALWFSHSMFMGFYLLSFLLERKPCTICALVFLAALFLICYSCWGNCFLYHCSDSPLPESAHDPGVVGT
Described as above. Set-up: species or system murine. The following applies: free synthetic peptide 100 μg/ml. Here is the method: as §1, §2

Test [1] deals with heart-derived cell suspensions. Description: Competition of CRPPR-displaying phage binding to heart-derived cell suspensions. Particulars: various concentrations of antibody or free peptide. The test is classed as cell-based, murine. Here is the method:
CRPPR (SEQ ID NO: 1)-displaying phage were incubated with cell suspensions prepared from the heart; phage binding was measured in the presence and absence of various concentrations of the indicated antibodies or peptides. (A) A chicken anti-CRIP2 antibody blocked SEQ ID NO: 1-displaying phage binding to heart cells; normal IgY was used as the negative control. […] (C) In vivo homing of the CRPPR (SEQ ID NO: 1)-displaying phage to the heart was inhibited by co-injected anti-CRIP2 antibody. Shown are the mean and standard deviation from three separate experiments.
The specificity of CRPPR (SEQ ID NO: 1)-phage binding to heart vasculature was assayed using competition assays. […] As negative controls, two other heart-homing peptides had no effect on the CRPPR (SEQ ID NO: 1)-phage binding. Furthermore, co-injected anti-HLP/CRIP2 antibody inhibited in vivo homing of CRPPR (SEQ ID NO: 1)-phage (FIG. 7C).

In the next test the target is T4, HLP/CRIP2 (Mus musculus, UniProt Q9DCT8).
T4 construct: Full-length cDNAs were constructed for four of the putative heart homing receptors; expressed in transfected cells; host or cells: 293T cells, pMH6-derived plasmid
T4 sequence (Q9DCT8 1-208): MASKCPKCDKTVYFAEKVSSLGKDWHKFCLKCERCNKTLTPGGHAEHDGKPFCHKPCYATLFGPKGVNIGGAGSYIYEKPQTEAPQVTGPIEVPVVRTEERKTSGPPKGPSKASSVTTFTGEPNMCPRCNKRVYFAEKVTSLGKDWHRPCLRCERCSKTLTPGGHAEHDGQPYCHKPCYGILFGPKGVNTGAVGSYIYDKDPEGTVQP
The experiment in a line: Phage binding to receptor-transfected 293T cells and peptide competition. Set-up: species or system murine. The following applies: free synthetic peptide 100 μg/ml. Here is the method:
as §1, §2

The target in another test is T5, MpcII-3-related protein (Mus musculus, UniProt Q9CZB0).
T5 construct: Full-length cDNAs were constructed for four of the putative heart homing receptors; expressed in transfected cells; host or cells: 293T cells, pMH6-derived plasmid
T5 sequence (Q9CZB0 30-169): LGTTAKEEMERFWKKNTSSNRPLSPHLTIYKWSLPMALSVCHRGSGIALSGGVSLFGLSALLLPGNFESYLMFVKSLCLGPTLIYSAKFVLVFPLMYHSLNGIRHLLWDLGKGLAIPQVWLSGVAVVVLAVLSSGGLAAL
Described as above. Set-up: species or system murine. Particulars: free synthetic peptide 100 μg/ml. Here is the method:
as §1, §2

Regarding `Cc1cc2c(cc1CC(=O)c1sccc1S(=O)(=O)Nc1onc(C)c1Cl)OCO2` [TBC 11251], the “clinical effect in patients with moderate to severe congestive heart failure” value on endothelin A-receptor is given as “significant improvement”.

Turning to CARPAR (displayed on phage), in the test on heart vasculature, the “selective homing to the heart (in words)” value was “exhibited selective homing to the heart”. In the test on heart endothelia, the “phage detection in tissues other than heart (anti-T7 antibody)” value (“phage detection” for short) was “absent from other tissues” and the “phage localization in heart endothelia (anti-T7 antibody)” value (from here on “phage localization in heart endothelia”) was “present in heart endothelia”.

As for CGNQVDSRC (displayed on T7 phage), the “selective homing to the heart (in words)” value in the test with heart vasculature is “no significant selective homing”.

Regarding CKRAVR [on phage and as free peptide], the “inhibition of CKRAVR-phage binding to Sigirr/TIR8-transfected cells by free peptide” value with Sigirr/TIR8 is reported as “inhibited”. In addition, in the test with heart endothelia, the “phage detection” value is reported as “absent from other tissues” and the “phage localization in heart endothelia” value is listed as “present in heart endothelia”.

With “CLIDLHVMC (displayed on phage) [peptide identified with receptor clone 27; negative control phage]”, in the test on heart vasculature, the “selective homing to the heart (in words)” value is “no specific homing to the heart”. The “phage localization in heart endothelia” value in the test with heart endothelia is “absent from the heart”; in the test on heart endothelia (listed as SEQ ID NO: 10), “absent from the heart and other tissues”.

For CPKRPR (displayed on phage), the “selective homing to the heart (in words)” value in the test on heart vasculature is recorded as “exhibited selective homing to the heart”.

With “CPKTRRVPC [on phage and as free peptide]”, the “inhibition of CPKTRRVPC-phage binding to bc10-transfected cells by free peptide” value with bc10 is listed as “inhibited”. In the test with heart endothelia, the “phage detection” value was “absent from other tissues” and the “phage localization in heart endothelia” value is on record as “present in heart endothelia”.

For the molecule CPSELLLP (displayed on phage), the “selective homing to the heart (in words)” value in the test with heart vasculature is given as “did not”.

Take “CRPPR (not fully specified) [tested on T7 phage, as free peptide and fluorescein-conjugated]”: in test [1], the “inhibition of CRPPR-displaying phage binding to heart-derived cell suspensions” value is “blocked; also recorded: Dose dependent inhibition”. Moreover, the “inhibition of CRPPR-phage binding to HLP/CRIP2-transfected cells by free peptide” value in the test with HLP/CRIP2 was “inhibited”. Also, the “phage homing to the lungs” value with heart vasculature (peptide displayed on phage, lung tissue) is recorded as “little”. Moreover, in the test with heart endothelia, the “phage detection” value is “absent from other tissues” and the “phage localization in heart endothelia” value is reported as “present in heart endothelia”.

As to “CRSTRANPC [on phage and as free peptide]”, the “inhibition of CRSTRANPC-phage binding to MpcII-3-related protein-transfected cells by free peptide” value with MpcII-3-related protein was “inhibited”. For the same molecule, in the test on heart endothelia, the “phage detection” value is “absent from other tissues” and the “phage localization in heart endothelia” value was “present in heart endothelia”.
